Target: T1, B1R receptor of the rat (rB1R) (Rattus norvegicus, UniProt P97583)
T1 construct: expressed in transfected cells; host or cells: CHO K1 cells
T1 sequence (P97583 1-337): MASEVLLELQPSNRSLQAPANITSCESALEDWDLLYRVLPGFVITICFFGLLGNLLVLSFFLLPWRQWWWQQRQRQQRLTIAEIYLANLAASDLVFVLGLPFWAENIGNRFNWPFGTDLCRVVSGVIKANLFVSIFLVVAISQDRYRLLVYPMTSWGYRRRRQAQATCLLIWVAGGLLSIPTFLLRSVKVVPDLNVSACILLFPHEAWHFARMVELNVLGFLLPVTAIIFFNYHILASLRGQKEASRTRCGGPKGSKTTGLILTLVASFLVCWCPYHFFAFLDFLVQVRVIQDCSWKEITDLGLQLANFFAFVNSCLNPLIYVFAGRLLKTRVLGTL
Assay: Functional investigation on the bradykinin 1 receptor (B1R), FLIPR Ca2+ assay, rB1R cells
Type: cell-based
Conditions: CHO-K1, 10 μM test substance; CHO K1 cells with rat B1R; agonist Des-Arg9 bradykinin; % of maximum achievable inhibition; read-out: B1R antagonism, rat [10 μM] % inhibition
Outline: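 Ca2+ influx is measured as peak Fluo-4 fluorescence in a FLIPR protocol with two substance additions, following Lys-Des-[MUT] bradykinin (0.5 nM) or Des-[MUT] bradykinin (100 nM) challenge. Varying antagonist concentrations give % inhibition relative to maximum achievable and an IC50. Determinations in duplicate or triplicate, repeated independently (N>=2).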

SMILES	inhibition at 10 µM [%]
COc1cc(C)c(S(=O)(=O)Nc2ccc3ccn(CCC(=O)N4CCC5(CC4)CCN(c4ccncc4)CC5)c3c2)c(C)c1 [G_CC-35, 4-Methoxy-2,6-dimethyl-N-[1-[3-oxo-3-(3-pyridin-4-yl-3,9-diazaspiro[5.5]undecan-9-yl)-propyl]-1H-indol-6-yl]-benzenesulfonic acid amide]	72
COc1cc(C)c(S(=O)(=O)Nc2cccc3ccn(CC(=O)N(C)CCC4CCC(c5ccccc5)(N(C)C)CC4)c23)c(C)c1 (centres unmarked) [G_CC-77, N-[2-(4-Dimethylamino-4-phenyl-cyclohexyl)-ethyl]-2-[7-[[(4-methoxy-2,6-dimethyl-phenyl)sulfonyl]amino]-1H-indol-1-yl]-N-methyl-acetamide]	104
CN(CCC1CCC(c2ccccc2)(N(C)C)CC1)C(=O)CCn1ccc2ccc(N3Cc4cccc(Cl)c4C3=O)cc21 (centres unmarked) [G_CC-127, 3-[6-(4-Chloro-3-oxo-1,2-dihydro-isoindol-2-yl)-1H-indol-1-yl]-N-[2-(4-dimethylamino-4-phenyl-cyclohexyl)-ethyl]-N-methyl-propionamide]	63
COc1cc(C)c(S(=O)(=O)Nc2cccc3ccn(CCC(=O)NC4CCC(c5ccccc5)(N5CCC5)CC4)c23)c(C)c1 (centres unmarked) [G_CC-50, N-[4-(Azetidin-1-yl)-4-phenyl-cyclohexyl]-3-[7-[[(4-methoxy-2,6-dimethyl-phenyl)sulfonyl]amino]-1H-indol-1-yl]-propionamide]	62
O=C(Cn1ccc2cccc(NS(=O)(=O)c3ccccc3C(F)(F)F)c21)N1CCC2(CC1)CCN(c1ccncc1)CC2 [G_CC-53, N-[1-[2-Oxo-2-(3-pyridin-4-yl-3,9-diazaspiro[5.5]undecan-9-yl)-ethyl]-1H-indol-7-yl]-2-(trifluoromethyl)-benzenesulfonic acid amide]	101
Cc1cc(S(=O)(=O)Nc2cccc3ccn(CCC(=O)N4CCC(CCN5CCCC5)CC4)c23)c(C)cc1Cl [G_CC-60, 4-Chloro-2,5-dimethyl-N-[1-[3-oxo-3-[4-(2-pyrrolidin-1-yl-ethyl)-piperidin-1-yl]-propyl]-1H-indol-7-yl]-benzenesulfonic acid amide]	87
COc1cc(C)c(S(=O)(=O)Nc2ccc3ccn(CCC(=O)NCCC4CCN(c5ccncc5)CC4)c3c2)c(C)c1 [G_CC-23, 3-[6-[[(4-Methoxy-2,6-dimethyl-phenyl)sulfonyl]amino]-1H-indol-1-yl]-N-[2-(1-pyridin-4-yl-piperidin-4-yl)-ethyl]-propionamide]	63
COc1cc(C)c(S(=O)(=O)Nc2ccc3ccn(CCC(=O)N(C)CCC4CCC(c5ccccc5)(N(C)C)CC4)c3c2)c(C)c1 (centres unmarked) [G_CC-117, N-[2-(4-Dimethylamino-4-phenyl-cyclohexyl)-ethyl]-3-[6-[[(4-methoxy-2,6-dimethyl-phenyl)sulfonyl]amino]-1H-indol-1-yl]-N-methyl-propionamide]	74
O=C(Cn1ccc2ccc(N3Cc4cccc(Cl)c4C3=O)cc21)NCCC1CCN(c2ccncc2)CC1 [G_CC-103, 2-[6-(4-Chloro-3-oxo-1,2-dihydro-isoindol-2-yl)-1H-indol-1-yl]-N-[2-(1-pyridin-4-yl-piperidin-4-yl)-ethyl]-acetamide]	88
COc1cc(C)c(S(=O)(=O)Nc2ccc3ccn(CC(=O)NCCN4CCC(c5cccs5)(N(C)C)CC4)c3c2)c(C)c1 [G_CC-30, N-[2-(4-Dimethylamino-4-thiophen-2-yl-piperidin-1-yl)-ethyl]-2-[6-[[(4-methoxy-2,6-dimethyl-phenyl)sulfonyl]amino]-1H-indol-1-yl]-acetamide]	53
COc1cc(C)c(S(=O)(=O)Nc2cccc3ccn(CC(=O)N4CCC5(CC4)C(=O)N(C)CC5c4ccc(F)cc4)c23)c(C)c1 (centres unmarked) [G_CC-31, N-[1-[2-[1-(4-Fluorophenyl)-3-methyl-4-oxo-3,8-diazaspiro[4.5]decan-8-yl]-2-oxo-ethyl]-1H-indol-7-yl]-4-methoxy-2,6-dimethyl-benzenesulfonic acid amide]	91

Now from value to compound:

inhibition at 10 µM [%]	SMILES
95	Cc1cc(S(=O)(=O)Nc2cccc3ccn(CC(=O)N4CCC5(CC4)CCN(c4ccncc4)CC5)c23)c(C)cc1Cl [G_CC-39, 4-Chloro-2,5-dimethyl-N-[1-[2-oxo-2-(3-pyridin-4-yl-3,9-diazaspiro[5.5]undecan-9-yl)-ethyl]-1H-indol-7-yl]-benzenesulfonic acid amide]
52	O=C(CCn1ccc2ccc(N3Cc4cccc(Cl)c4C3=O)cc21)N1CCC2(CC1)CCN(Cc1ccc(F)cc1)C2=O [G_CC-66, 8-[3-[6-(4-Chloro-3-oxo-1,2-dihydro-isoindol-2-yl)-1H-indol-1-yl]-propanoyl]-3-[(4-fluorophenyl)-methyl]-3,8-diazaspiro[4.5]decan-4-one]
89	CN1CCC(CN2CCN(C(=O)CCn3ccc4ccc(N5Cc6cccc(Cl)c6C5=O)cc43)CC2)CC1 [G_CC-64, 7-Chloro-2-[1-[3-[4-[(1-methyl-piperidin-4-yl)-methyl]-piperazin-1-yl]-3-oxo-propyl]-1H-indol-6-yl]-2,3-dihydro-isoindol-1-one]
87	COc1cc(C)c(S(=O)(=O)Nc2cccc3ccn(CC(=O)N(C)CCCN4CCC(c5cccs5)(N(C)C)CC4)c23)c(C)c1 [G_CC-18, N-[3-(4-Dimethylamino-4-thiophen-2-yl-piperidin-1-yl)-propyl]-2-[7-[[(4-methoxy-2,6-dimethyl-phenyl)sulfonyl]amino]-1H-indol-1-yl]-N-methyl-acetamide]
92	COc1cc(C)c(S(=O)(=O)Nc2ccc3ccn(CC(=O)N(C)CCCN4CCC(c5cccs5)(N(C)C)CC4)c3c2)c(C)c1 [G_CC-29, N-[3-(4-Dimethylamino-4-thiophen-2-yl-piperidin-1-yl)-propyl]-2-[6-[[(4-methoxy-2,6-dimethyl-phenyl)sulfonyl]amino]-1H-indol-1-yl]-N-methyl-acetamide]
63	Cc1cc(S(=O)(=O)Nc2ccc3ccn(CC(=O)N4CCC5(CC4)CCN(c4ccncc4)CC5)c3c2)c(C)cc1Cl [G_CC-36, 4-Chloro-2,5-dimethyl-N-[1-[2-oxo-2-(3-pyridin-4-yl-3,9-diazaspiro[5.5]undecan-9-yl)-ethyl]-1H-indol-6-yl]-benzenesulfonic acid amide]
54	CCN1CCN(CCCNC(=O)CCn2ccc3cccc(NS(=O)(=O)c4c(C)cc(OC)cc4C)c32)CC1 [G_CC-56, N-[3-(4-Ethyl-piperazin-1-yl)-propyl]-3-[7-[[(4-methoxy-2,6-dimethyl-phenyl)sulfonyl]amino]-1H-indol-1-yl]-propionamide]
91	O=C(Cn1ccc2ccc(NS(=O)(=O)c3ccccc3C(F)(F)F)cc21)N1CCC2(CC1)CCN(c1ccncc1)CC2 [G_CC-37, N-[1-[2-Oxo-2-(3-pyridin-4-yl-3,9-diazaspiro[5.5]undecan-9-yl)-ethyl]-1H-indol-6-yl]-2-(trifluoromethyl)-benzenesulfonic acid amide]
69	O=C(CCn1ccc2ccc(N3Cc4cccc(Cl)c4C3=O)cc21)N1CCC(Oc2ccncc2)CC1 [G_CC-68, 7-Chloro-2-[1-[3-oxo-3-(4-pyridin-4-yloxy-piperidin-1-yl)-propyl]-1H-indol-6-yl]-2,3-dihydro-isoindol-1-one]
62	COc1cc(C)c(S(=O)(=O)Nc2ccc3ccn(CC(=O)N4CCN(C5CCN(C)CC5)CC4)c3c2)c(C)c1 [G_CC-1, 4-Methoxy-2,6-dimethyl-N-[1-[2-[4-(1-methyl-piperidin-4-yl)-piperazin-1-yl]-2-oxo-ethyl]-1H-indol-6-yl]-benzenesulfonic acid amide]
51	Cc1cc(S(=O)(=O)Nc2ccc3ccn(CCC(=O)NCCN4CCC(c5cccs5)(N(C)C)CC4)c3c2)c(C)cc1Cl [G_CC-74, 3-[6-[[(4-Chloro-2,5-dimethyl-phenyl)sulfonyl]amino]-1H-indol-1-yl]-N-[2-(4-dimethylamino-4-thiophen-2-yl-piperidin-1-yl)-ethyl]-propionamide]
97	COc1cc(C)c(S(=O)(=O)Nc2cccc3ccn(CC(=O)NCCC4CCN(c5ccncc5)CC4)c23)c(C)c1 [G_CC-21, 2-[7-[[(4-Methoxy-2,6-dimethyl-phenyl)sulfonyl]amino]-1H-indol-1-yl]-N-[2-(1-pyridin-4-yl-piperidin-4-yl)-ethyl]-acetamide]
87	Cc1cc(S(=O)(=O)Nc2cccc3ccn(CCC(=O)N4CCN(C5CCN(C)CC5)CC4)c23)c(C)cc1Cl [G_CC-59, 4-Chloro-2,5-dimethyl-N-[1-[3-[4-(1-methyl-piperidin-4-yl)-piperazin-1-yl]-3-oxo-propyl]-1H-indol-7-yl]-benzenesulfonic acid amide]
58	CN(CCCN1CCC(c2cccs2)(N(C)C)CC1)C(=O)Cn1ccc2cccc(NS(=O)(=O)c3cccc4ccccc34)c21 [G_CC-25, N-[3-(4-Dimethylamino-4-thiophen-2-yl-piperidin-1-yl)-propyl]-N-methyl-2-[7-[(naphthalen-1-ylsulfonyl)amino]-1H-indol-1-yl]-acetamide]
76	COc1cc(C)c(S(=O)(=O)Nc2cccc3ccn(CCC(=O)N4CCC(CCN5CCCC5)CC4)c23)c(C)c1 [G_CC-41, 4-Methoxy-2,6-dimethyl-N-[1-[3-oxo-3-[4-(2-pyrrolidin-1-yl-ethyl)-piperidin-1-yl]-propyl]-1H-indol-7-yl]-benzenesulfonic acid amide]

Source: US8492559B2, “Substituted indole compounds” (Gruenenthal GmbH, priority 2009, dated 2013)
